One data set addresses T1, serotonin transporter (Rattus norvegicus, UniProt P31652).
T1 construct: displace ^3H-paroxetine from male rat frontal cortical membranes; from tissue; host or cells: male rat frontal cortex membranes
Briefly: 3H-paroxetine displacement, affinity for the serotonin transporter. Type of data set: binding.

The target in another data set is T2, human 5HT1A receptors (Homo sapiens, UniProt P08908).
T2 construct: expressed in transfected cells; host or cells: CHO cells
T2 sequence (P08908 1-422): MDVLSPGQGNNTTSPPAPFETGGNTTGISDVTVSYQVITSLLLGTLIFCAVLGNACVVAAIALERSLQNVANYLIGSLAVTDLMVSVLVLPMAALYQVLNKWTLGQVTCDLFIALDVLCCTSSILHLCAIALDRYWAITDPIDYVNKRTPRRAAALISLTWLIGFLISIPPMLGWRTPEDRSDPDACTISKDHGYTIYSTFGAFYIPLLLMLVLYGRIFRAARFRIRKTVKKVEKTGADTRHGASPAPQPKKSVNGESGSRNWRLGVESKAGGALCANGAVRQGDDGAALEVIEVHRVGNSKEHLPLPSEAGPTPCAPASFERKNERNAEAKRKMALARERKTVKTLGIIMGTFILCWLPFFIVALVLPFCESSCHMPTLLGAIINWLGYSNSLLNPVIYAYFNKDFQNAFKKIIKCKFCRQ
Briefly: [3H] 8-OH-DPAT displacement from the 5HT1A serotonin receptor (transfected CHO cells). In kind it is binding. From the text:
High affinity for the serotonin 5HT1A receptor was established by testing the claimed compound's ability to displace [^3H] 8-OH-DPAT (dipropylamino-tetralin) from the 5HT1A serotonin receptor following a modification of the procedure of Hall et al., J. Neurochem. 44, 1685 (1985) which utilizes CHO cells stably transfected with human 5HT1A receptors.

The target of data set [1] is T3, cloned human 5HT1A receptors (Homo sapiens, UniProt P08908).
T3 construct: expressed in transfected cells
T3 sequence (P08908 1-422): T2 sequence (P08908 1-422)
Briefly: 35S-GTPγS binding assay, antagonist activity at 5HT1A receptors. To be noted: for IC50: 35S-GTPγS binding, reversal of the effects of the standard agonist 8-OH-DPAT, membranes with cloned human 5HT1A receptors, read-out: 5HT1A Function IC50; for Emax: maximum inhibitory effect in 35S-GTPγS binding versus 8-OH-DPAT, read-out: 5HT1A Function (Imax). Type of data set: biochemical. As for the experimental part:
Antagonist activity at 5HT1A receptors was established by using a ^35S-GTPγS binding assay similar to that used by Lazareno and Birdsall (Br. J. Pharmacol. 109: 1120, 1993), in which the test compound's ability to affect the binding of 35S-GTPγS to membranes containing cloned human 5HT1A receptors was determined. Agonists produce an increase in binding whereas antagonists produce no increase but rather reverse the effects of the standard agonist 8-OH-DPAT. The test compound's maximum inhibitory effect is represented as the 1max, while its potency is defined by the IC50.
Background: GTPγS resists hydrolysis and so accumulates on activated G proteins.

The mark [2] stands for this setting: displacement of [3H] 8-OH-DPAT, CHO cells stably transfected with human 5HT1A receptors, read-out: 5HT1A Receptor Affinity KI.

Structures can show the parent of a compound that is named as a salt. Where two headings read alike, the source gives them in different places.

One may read the melting point as the temperature, or range, at which the solid turns liquid. What is called Ki is a dissociation constant, usually derived from enzyme kinetics or from competition with a known ligand. By IC50 is commonly meant the concentration needed to halve the response being measured.

T1 sequence (P31652 whole entry): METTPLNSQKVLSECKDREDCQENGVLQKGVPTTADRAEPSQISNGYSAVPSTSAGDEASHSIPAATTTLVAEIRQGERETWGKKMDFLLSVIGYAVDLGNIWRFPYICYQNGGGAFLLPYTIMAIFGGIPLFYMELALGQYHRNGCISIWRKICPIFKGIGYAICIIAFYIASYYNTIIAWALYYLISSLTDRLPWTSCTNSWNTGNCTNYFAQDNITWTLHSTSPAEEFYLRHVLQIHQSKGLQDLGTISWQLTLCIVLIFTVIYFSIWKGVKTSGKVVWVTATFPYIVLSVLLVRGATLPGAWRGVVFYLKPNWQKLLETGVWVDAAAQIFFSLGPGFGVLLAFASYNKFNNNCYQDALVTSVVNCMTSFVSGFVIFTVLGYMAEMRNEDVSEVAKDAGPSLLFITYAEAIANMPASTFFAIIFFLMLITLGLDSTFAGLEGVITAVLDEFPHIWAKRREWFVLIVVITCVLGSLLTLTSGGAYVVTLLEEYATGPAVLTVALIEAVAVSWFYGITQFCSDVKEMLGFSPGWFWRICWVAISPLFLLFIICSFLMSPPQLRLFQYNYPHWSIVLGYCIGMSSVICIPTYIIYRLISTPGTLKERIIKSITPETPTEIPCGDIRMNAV

In turn, `Nc1ccc2c3c(ccc2n1)OC[C@H](CN1CC=C(c2c[nH]c4ccc(F)cc24)CC1)O3` (as salt: fumarate) (hydrate or solvate) [Example 18, 2-[4-(5-Fluoro-1H-indol-3-yl)-3,6-dihydro-2H-pyridin-1-ylmethyl]-2,3-dihydro[1,4]dioxino[2,3-f]guinolin-8-ylamine] registered a melting point of 245 °C.
On to `Cc1ccc2[nH]cc(C3=CCN(CC4COc5ccc6nc(C)ccc6c5O4)CC3)c2c1` (stereo not drawn) (as salt: fumarate) (hydrate or solvate) [Example 22, 2-[4-(5-Methyl-1H-indol-3-yl)-3,6-dihydro-2H-pyridin-1-ylmethyl]-8-methyl-2,3-dihydro[1,4]dioxino[2,3-f]quinoline], for which the melting point lay in the range of 150 to 155 °C.
Same read-out and setting: for `COc1ccc2[nH]cc(C3=CCN(C[C@H]4COc5ccc6ncccc6c5O4)CC3)c2c1` (as salt: fumarate) [Example 1] the value was 170 °C; for `N#Cc1ccc2[nH]cc(C3=CCN(CC4COc5ccc6ncccc6c5O4)CC3)c2c1` (stereo not drawn) (as salt: fumarate) [Example 5, 3-[1-(2,3-Dihydro[1,4]dioxino[2,3-f]quinolin-2-ylmethyl)-1,2,3,6-tetrahydropyridin-4-yl]-1H-indole-5-carbonitrile], 159 to 161 °C.
Same read-out and setting: for `COc1cc2c(c3cccnc13)O[C@@H](CN1CC=C(c3c[nH]c4ccc(F)cc34)CC1)CO2` (as salt: fumarate) [Example 17, 2-[4-(5-Fluoro-1H-indol-3-yl)-3,6-dihydro-2H-pyridin-1-ylmethyl]-6-methoxy-2,3-dihydro[1,4]dioxino[2,3-f]qiuinoline] the value was 217 °C.
In turn, `Cc1ccc2c3c(ccc2n1)OCC(CN1CC=C(c2c[nH]c4cc(F)ccc24)CC1)O3` (stereo not drawn) (as salt: oxalate) (hydrate or solvate) [Example 10, 2-[4-(6-Fluoro-1H-indol-3-yl)-3,6-dihydro-2H-pyridin-1-ylmethyl]-8-methyl-2,3-dihydro[1,4]dioxino[2,3-f]quinoline] gave a melting point of 140 to 143 °C.
Same read-out and setting: for `Fc1ccc2[nH]cc(CC3CCN(C[C@H]4COc5ccc6ncccc6c5O4)CC3)c2c1` (as salt: oxalate) [Example 3] the value was 184 °C.
The same measure, in the same setting: for `Fc1ccc2[nH]cc(C3=CCN(C[C@H]4COc5ccc6ncccc6c5O4)CC3)c2c1` (hydrate or solvate) [Example 2] the value was 184 °C; for `C1=C(c2c[nH]c3ccccc23)CCN(C[C@H]2COc3ccc4ncccc4c3O2)C1` (hydrate or solvate) [Example 4, 2-[1,4-(1H-indol-3-yl)-3,6-dihydro-2H-pyridin-1-ylmethyl]-2,3-dihydro[1,4]dioxino[2,3-f]quinoline], 217 °C.
Compound `Cc1ccc2c3c(ccc2n1)OCC(CN1CCC(Cc2c[nH]c4ccc(F)cc24)CC1)O3` (stereo not drawn) [Example 8, 2-({4-[(5-Fluoro-1H-indol-3-yl)methyl]piperidin-1-yl}methyl)-8-methyl-2,3-dihydro[1,4]dioxino[2,3-f]quinoline] yielded a melting point of 91 to 92 °C. Further, the Ki at serotonin transporter (displacement of 3H-paroxetine from male rat frontal cortical membranes, read-out: 5-HT Transporter Affinity KI) was 2.56 nM. Also, at human 5HT1A receptors (setting [2]), the Ki came out at 7.24 nM.
`Cc1ccc2c3c(ccc2n1)OCC(CN1CC=C(c2c[nH]c4ccccc24)CC1)O3` (stereo not drawn) [Example 9, 2-[4-(1H-Indol-3-yl)-3,6-dihydro-2H-yridin-1-ylmethyl]-8-methyl-2,3-dihydro[1,4]dioxino[2,3-f]quinoline] registered a melting point of 210 °C. On serotonin transporter, this compound returned a Ki of 2.34 nM. This compound also registered a Ki on human 5HT1A receptors of 3.02 nM. In addition, in data set [1], the IC50 stood at 56.7 nM and the Emax was found to be 98.3%.
In turn, `CCc1ccc2c3c(ccc2n1)OCC(CN1CC=C(c2c[nH]c4ccccc24)CC1)O3` (stereo not drawn) [Example 13, 8-Ethyl-2-[(4-(1H-indol-3-yl)-3,6-dihydropyridin-1(2H)-yl)methyl]-2,3-dihydro[1,4]dioxino[2,3-f]quinoline] returned a melting point of 190 °C. For the same compound, the Ki at serotonin transporter turned out to be 4.9 nM. The same compound registered an inhibitory constant (Ki) on human 5HT1A receptors of 6.82 nM. Moreover, in data set [1], the IC50 is 162 nM and the Emax came to 88.7%.
Compound `Fc1cc2c(c3cccnc13)OC(CN1CC=C(c3c[nH]c4ccccc34)CC1)CO2` (stereo not drawn) [Example 16, 6-Fluoro-2-[4-(1H-indol-3-yl)-3,6-dihydro-2H-pyridin-1-ylmethyl]-2,3-dihydro[1,4]dioxino[2,3-f]quinoline] displayed a melting point of 215 °C. Also, on serotonin transporter, the affinity, expressed as Ki, was 21 nM. For the same compound, the Ki at human 5HT1A receptors (setting [2]) came out at 55.9 nM.
With `Cc1ccc2c3c(ccc2n1)OC[C@H](CN1CC=C(c2c[nH]c4c(F)cccc24)CC1)O3` [Example 21], the melting point was in the range of 205 to 221 °C. Besides, at serotonin transporter, the affinity, expressed as Ki, was 2.94 nM. The compound also yielded a Ki on human 5HT1A receptors of 7.75 nM. For the same compound, in data set [1], the IC50 worked out at 51.7 nM and the Emax was 100%.
`Cc1cnc2ccc3c(c2c1)OC(CN1CC=C(c2c[nH]c4ccccc24)CC1)CO3` (stereo not drawn) [Example 23, 2-[4-(1H-Indol-3-yl)-3,6-dihydro-2H-pyridin-1-ylmethyl]-9-methyl-2,3-dihydro[1,4]dioxino[2,3-f]quinoline] returned a melting point of 211 to 213 °C. At serotonin transporter, this compound showed a Ki of 28 nM. In addition, the Ki at human 5HT1A receptors (setting [2]) stood at 7.76 nM.

These data come from US6458802B1, “Antidepressant azaheterocyclymethyl derivatives of 2,3-dihydro-1,4-dioxino [2,3-f]quinoline” (Wyeth, priority 2001, dated 2002).
